Results on 19 compounds are retold here after US20260191850A1, “USE OF 8-HYDROXYQUINOLINE DERIVATIVE” (Jiangsu Yahong Meditech Co., Ltd., priority 2022, published 2026).

pEC50: −log10 of the molar value. Where “and” joins values, the source holds several entries; their conditions need not be identical. Equal entries are not always repeated. Structures can show the parent of a compound that is named as a salt. Where two headings read alike, the source gives them in different places. Some results are limits rather than exact numbers.

Data set [1] relates to Human Papillomavirus 11 (HPV11). The experiment in a line: Transient transfection HPV replication assay (E1/E2 plasmids, NanoLuc reporter), HPV11. Format: cell-based. Particulars: HPV11 strain HE611260.1, C-33 A cells; for pEC50: 48 hours. Here is the method:
The antiviral activity of 7-nitro-8-hydroxyquinoline derivatives against human papillomavirus (HPV) was tested and evaluated using transient transfection assays. This evaluation system included plasmids expressing viral helicase E1 and replication origin binding protein E2, plasmids containing NanoLuc gene of which the expression was driven by a TK promoter (Promega company), and replication origin sequences of human papillomavirus strains listed below. […] The positions of replication origin sequences of the three NanoLuc reporter plasmids were 7825-7993:1-99, 7662-7901:1-99, and 7740-7837:1-102 for HPV-11 (NCBI Accession No. HE611260.1), HPV-16 (NCBI Accession No. KP212151.1), and HPV-18 (NCBI Accession No. KC470230.1), respectively. The positions of E1 open reading frame (ORF) sequences corresponding to HPV-11, HPV-16 and HPV-18 were 832-2781, 864-2813 and 914-2887 in the same sequences, respectively. The positions of E2 open reading frame (ORF) sequences corresponding to HPV-11, HPV-16 and HPV-18 were 2723-3826, 2755-3852 and 2817-3908 in the same sequences, respectively. The cells used for transient transfection were C-33A cells (ATCC HTB-31), and the culture medium was DMEM supplemented with Earle's salt, L-glutamine and 2% fetal bovine serum. In the experiment, the NanoLuc expression plasmid (5 ng/well) was co-transfected with the E1 and E2 expression plasmids of the homologous virus by using Lipofectamine LTXL and Plus Reagent (Invitrogen product, Thermo Fisher Scientific company). […] Meanwhile, the transfected cells were also seeded into duplicated dishes containing the same dilution of test drugs to assess cytotoxicity. All transfected monolayer cells were incubated at 37° C. for 48 hours. The NanoLuc activity expressed by the reporter plasmids was detected with Nano-Glo reagent (Promega company), the cell viability in cytotoxicity plates was measured with CellTiter-Glo reagent (Promega company), and the luminescence intensity was quantified on a microplate reader. The meanings of EC50, CC50, and SI50 were the same as those well-known in the art (where SI50=CC50/EC50), and were not described here. […]

Data set [2] relates to C-33A cells (ATCC HTB-31). Nature of the data set: in vitro. Here is the method:
(§1) The antiviral activity of 7-nitro-8-hydroxyquinoline derivatives against human papillomavirus (HPV) was tested and evaluated using transient transfection assays. This evaluation system included plasmids expressing viral helicase E1 and replication origin binding protein E2, plasmids containing NanoLuc gene of which the expression was driven by a TK promoter (Promega company), and replication origin sequences of human papillomavirus strains listed below. […] The positions of replication origin sequences of the three NanoLuc reporter plasmids were 7825-7993:1-99, 7662-7901:1-99, and 7740-7837:1-102 for HPV-11 (NCBI Accession No. HE611260.1), HPV-16 (NCBI Accession No. KP212151.1), and HPV-18 (NCBI Accession No. KC470230.1), respectively. The positions of E1 open reading frame (ORF) sequences corresponding to HPV-11, HPV-16 and HPV-18 were 832-2781, 864-2813 and 914-2887 in the same sequences, respectively. The positions of E2 open reading frame (ORF) sequences corresponding to HPV-11, HPV-16 and HPV-18 were 2723-3826, 2755-3852 and 2817-3908 in the same sequences, respectively. The cells used for transient transfection were C-33A cells (ATCC HTB-31), and the culture medium was DMEM supplemented with Earle's salt, L-glutamine and 2% fetal bovine serum. In the experiment, the NanoLuc expression plasmid (5 ng/well) was co-transfected with the E1 and E2 expression plasmids of the homologous virus by using Lipofectamine LTXL and Plus Reagent (Invitrogen product, Thermo Fisher Scientific company). […] Meanwhile, the transfected cells were also seeded into duplicated dishes containing the same dilution of test drugs to assess cytotoxicity. All transfected monolayer cells were incubated at 37° C. for 48 hours. The NanoLuc activity expressed by the reporter plasmids was detected with Nano-Glo reagent (Promega company), the cell viability in cytotoxicity plates was measured with CellTiter-Glo reagent (Promega company), and the luminescence intensity was quantified on a microplate reader. The meanings of EC50, CC50, and SI50 were the same as those well-known in the art (where SI50=CC50/EC50), and were not described here.
(§2) J Med Chem. 2016; 59 (23): 10470-8. • Kachaeva, M. et al. In vitro activity of novel 1,3-oxazole derivatives against HPV. Ibnosina J Med Biomed Sci. 2017; 9 (4): 111-8.

The next data set can be described thus: in vitro. Particulars: human. Here is the method: as §1, §2
Data set [3] relates to Human Papillomavirus 18 (HPV18). The experiment in a line: Transient transfection HPV replication assay (E1/E2 plasmids, NanoLuc reporter), HPV18. Format: cell-based. Conditions: HPV18 strain KC470230.1, C-33 A cells; for pEC50: 48 hours. How it is done: as §1, §2
Data set [4] has as its system Human Papillomavirus 16 (HPV16). The experiment in a line: Transient transfection HPV replication assay (E1/E2 plasmids, NanoLuc reporter), HPV16. Format: cell-based. Here is the method:
as §1, §2

Setting [5] is: Human papillomavirus 16, C-33-A, 48 h.
Setting [6] is: C-33 A cells transfected with HPV11 (HE611260.1) plasmids, 48 hours.
Where [7] appears, read: C-33 A cells transfected with HPV16 (KP212151.1) plasmids, 48 hours.
Where [8] appears, read: C-33 A cells transfected with HPV18 (KC470230.1) plasmids, 48 hours.

A word on the pEC50: it is the negative decadic logarithm of the EC50, by convention in mol/L. As usually defined, the EC90 is the point of the concentration-response curve where the effect stands at 90%.

On to “4-methoxy-7-nitroquinolin-8-ol [Example 21]”, for which the pEC50 in data set [1] was less than 5.22. The compound also had a CC50 in data set [2] of 22.2 µM.
`CNc1c([N+](=O)[O-])c(O)c2ncccc2c1Cl` [Compound 7, 5-chloro-6-(methylamino)-7-nitroquinolin-8-ol]: the pEC50 in data set [1] (human papillomavirus 11) is 5.28. The compound further displayed a CC50 at 48 h in the data set “in vitro” (CC50) of 19.1 µM.
`O=[N+]([O-])c1cc(Cl)c2c(Cl)ccnc2c1O` [Compound 29, 4,5-dichloro-7-nitroquinolin-8-ol] showed a pEC50 in data set [1] (human papillomavirus 11) of 5.53. This compound came in with a CC50 at 48 h in “in vitro” of 8.74 µM.
In the case of `O=[N+]([O-])c1ccc2c(C3CCCCC3)ccnc2c1O` [Compound 32, 4-cyclohexyl-7-nitroquinolin-8-ol], the results for the pEC50 in data set [3] (human papillomavirus 18), in data set [4] (setting [5]) and in data set [1] (human papillomavirus 11) were more than 7.30, 7.10 and more than 7.30, respectively.
With `O=[N+]([O-])c1cc(Cl)c2c(N3CCCCC3)ccnc2c1O` [Compound 36, 5-chloro-7-nitro-4-piperidinylquinolin-8-ol], the pEC50 in data set [3] (human papillomavirus 18) was 6.57; in data set [4] (setting [5]) it was 6.16; in data set [1] (human papillomavirus 11), more than 7.30.
In the case of `O=[N+]([O-])c1ccc2c(C(F)(F)F)ccnc2c1O` [Compound 62, 7-nitro-4-trifluoromethylquinolin-8-ol], the pEC50 in data set [1] (human papillomavirus 11) was less than 5.92. The same compound yielded a CC50 at 48 h in the data set “in vitro” (CC50) of 5.5 µM.
For the compound `O=[N+]([O-])c1cc(Cl)c2c(C(F)(F)F)ccnc2c1O` [Compound 73, 5-chloro-7-nitro-4-(trifluoromethyl)-quinolin-8-ol hydrochloride], the values for the pEC50 in data set [4] (setting [5]) and in data set [1] (human papillomavirus 11) were 7.15 and 7.22, respectively. Besides, the CC50 at 48 h is 8.5 µM in “in vitro” (CC50, C-33 A cells transfected with HPV11 (HE611260.1) plasmids, 48 hours) and 8.32 µM in the data set “in vitro” (CC50, C-33 A cells transfected with HPV16 (KP212151.1) plasmids, 48 hours).
As for `O=[N+]([O-])c1ccc2c(Cl)c(C3CC3)cnc2c1O` [Compound 74, 4-chloro-3-cyclopropyl-7-nitroquinolin-8-ol], the pEC50 in data set [3] (human papillomavirus 18) was more than 7.30; in data set [4] (setting [5]), 6.82; in data set [1] (human papillomavirus 11) it was 6.24. In “in vitro” (CC50), this compound returned a CC50 at 48 h of 34.4 µM.
Turning to `O=[N+]([O-])c1c(Br)c(Cl)c2cccnc2c1O` [Compound 114, 6-bromo-5-chloro-7-nitroquinolin-8-ol], the pEC50 in data set [1] (human papillomavirus 11) is less than 5.22. For the same compound, the CC50 at 48 h in the data set “in vitro” stood at 30 µM.
`O=[N+]([O-])c1c(Cl)c(Cl)c2cccnc2c1O` [Compound 115, 5,6-dichloro-7-nitroquinolin-8-ol] gave a pEC50 in data set [1] (human papillomavirus 11) of less than 4.52. In the data set “in vitro” (CC50), the CC50 at 48 h worked out at 112 µM.
The matching figures for `O=[N+]([O-])c1c(Cl)c(F)c2cccnc2c1O` [Compound 123, 6-chloro-5-fluoro-7-nitroquinolin-8-ol]: less than 5.22 and 29.8 µM.
On to `Cc1ccnc2c(O)c(C#N)cc(Cl)c12` [Compound 131, 4-methyl-5-chloro-7-cyano-8-hydroxyquinoline], for which the pEC50 is 6.85 in data set [3] (human papillomavirus 18), 6.26 in data set [4] (setting [5]) and 6.28 in data set [1] (human papillomavirus 11).
In data set [1] (human papillomavirus 11), `N#Cc1c(Cl)c(Cl)c2cccnc2c1O` [Compound 133, 5,6-dichloro-7-cyano-8-hydroxyquinoline] had a pEC50 of less than 5.92. The compound also yielded a CC50 at 48 h in “in vitro” (CC50) of 5.59 µM.
The matching figures for `Cc1cc(C#N)c(O)c2ncccc12` [Compound A1]: less than 5.22 and 20.2 µM.
As to `O=[N+]([O-])c1ccc(O)c2ncccc12` [Compound A2, 5-nitro-8-hydroxyquinoline, reference compound], the results for the pEC50 in data set [3] (human papillomavirus 18) and in data set [1] (human papillomavirus 11) were 6.00 and 5.98, respectively.
With `O=[N+]([O-])c1ccc2c(NC3COC3)ccnc2c1O` [Example 19, 7-nitro-4-(3-oxetanylamino)quinolin-8-ol], the pEC50 in data set [1] was 6.28. For the same compound, the CC50 in data set [2] (setting [6]) was 4 µM.
As for `CN(C)C(=O)N1CCN(c2ccnc3c(O)c([N+](=O)[O-])ccc23)CC1` [Example 25, 4-(8-hydroxy-7-nitroquinolin-4-yl)-N,N-dimethylpiperazine-1-carboxamide], the pEC50 was 7.00 in data set [3]; 7.05 in data set [4] (HPV16 strain KP212151.1, C-33 A cells, 48 hours, read-out: EC50); more than 7.30 in data set [1]. The CC50 turned out to be 3.36 µM in data set [2] (setting [6]), 7.53 µM in data set [2] (setting [7]) and 5.88 µM in data set [2] (setting [8]).
`O=[N+]([O-])c1ccc2c(C3CCCCC3)ccnc2c1O` [Example 32, 4-cyclohexyl-7-nitroquinolin-8-ol]: the negative-log EC50 (pEC50) in data set [1] was 5.40. Moreover, in data set [2], the CC50 is more than 150 µM.
`Nc1nc2c(ncn2CCOCP(=O)(O)O)c(=O)[nH]1` [Positive control drug, 9-[2-(phosphonylmethoxy)ethyl]guanine, reference compound]: the EC90 in data set [3] was more than 150 µM; in data set [4] (HPV16 strain KP212151.1, C-33 A cells) it was 2.3 µM; in data set [1], 4.47 µM. In addition, the pEC50 in data set [1] was 5.90 and 5.99. The CC50 in data set [2] (setting [6]), in data set [2] (setting [7]) and in data set [2] (setting [8]) was more than 150 µM each time.
